# Experiments:
# EGFR wild type (EGFR WT) = EGFR wild type (EGFR WT) (Homo sapiens (Human), UniProt P00533); assay: Cellular Phosphorylation Assay, Assay 5 (EGF-stimulated EGFR phosphorylation, NIH 3T3 cells); assay type: cell-based
# EGFR = EGFR (Homo sapiens (Human), UniProt P00533); assay: ErbB Enzyme Assay (HTRF KinEASE-TK), Assay 3; assay type: biochemical
# ErbB2 WT = ErbB2 WT (Homo sapiens (Human), UniProt P04626); assay: ErbB Enzyme Assay (HTRF KinEASE-TK), Assay 2; assay type: biochemical
# Sequence of ErbB2 WT (P04626 23-1255): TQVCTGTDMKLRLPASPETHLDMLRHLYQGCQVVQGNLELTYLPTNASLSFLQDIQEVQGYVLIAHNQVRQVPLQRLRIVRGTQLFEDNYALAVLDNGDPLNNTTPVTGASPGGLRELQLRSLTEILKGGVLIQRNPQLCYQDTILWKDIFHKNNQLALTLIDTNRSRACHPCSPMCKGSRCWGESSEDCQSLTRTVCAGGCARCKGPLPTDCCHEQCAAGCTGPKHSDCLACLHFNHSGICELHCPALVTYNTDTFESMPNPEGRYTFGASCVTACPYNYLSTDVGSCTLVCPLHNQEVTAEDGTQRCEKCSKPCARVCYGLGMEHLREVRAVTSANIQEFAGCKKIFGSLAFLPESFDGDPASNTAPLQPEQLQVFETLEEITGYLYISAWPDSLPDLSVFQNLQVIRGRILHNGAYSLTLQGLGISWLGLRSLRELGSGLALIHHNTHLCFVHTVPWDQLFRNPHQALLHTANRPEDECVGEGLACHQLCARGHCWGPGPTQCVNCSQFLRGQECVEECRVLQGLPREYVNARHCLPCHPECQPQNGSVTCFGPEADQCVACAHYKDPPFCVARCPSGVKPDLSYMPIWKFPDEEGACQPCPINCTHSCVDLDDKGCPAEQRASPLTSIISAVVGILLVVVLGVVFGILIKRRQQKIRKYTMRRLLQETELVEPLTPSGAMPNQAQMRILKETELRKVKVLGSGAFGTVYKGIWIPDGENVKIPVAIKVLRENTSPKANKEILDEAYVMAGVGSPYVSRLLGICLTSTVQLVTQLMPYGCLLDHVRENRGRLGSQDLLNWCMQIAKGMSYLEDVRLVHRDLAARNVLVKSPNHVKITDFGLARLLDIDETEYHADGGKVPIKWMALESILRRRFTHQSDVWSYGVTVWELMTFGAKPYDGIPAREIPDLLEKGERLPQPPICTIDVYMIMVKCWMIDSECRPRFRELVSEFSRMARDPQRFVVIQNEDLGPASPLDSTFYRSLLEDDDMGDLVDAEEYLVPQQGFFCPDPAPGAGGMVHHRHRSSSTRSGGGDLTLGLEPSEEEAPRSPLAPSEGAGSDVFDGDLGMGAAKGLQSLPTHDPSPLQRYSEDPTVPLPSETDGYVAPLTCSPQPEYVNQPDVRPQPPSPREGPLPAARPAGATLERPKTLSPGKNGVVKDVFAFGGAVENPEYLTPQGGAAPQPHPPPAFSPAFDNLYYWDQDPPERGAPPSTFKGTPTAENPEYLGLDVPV
# [1] = target: ErbB2 with Exon 20 YVMA insertion (HER2-YVMA) (Homo sapiens (Human), UniProt P04626, INS775YVMA); assay: Cellular Phosphorylation Assay, Assay 4 (constitutive ErbB2 phosphorylation, NIH 3T3 cells); assay type: cell-based
# Sequence of ErbB2 with Exon 20 YVMA insertion (HER2-YVMA) (P04626 other isoform, or with tags, fused parts or gaps ins YVMA behind 775): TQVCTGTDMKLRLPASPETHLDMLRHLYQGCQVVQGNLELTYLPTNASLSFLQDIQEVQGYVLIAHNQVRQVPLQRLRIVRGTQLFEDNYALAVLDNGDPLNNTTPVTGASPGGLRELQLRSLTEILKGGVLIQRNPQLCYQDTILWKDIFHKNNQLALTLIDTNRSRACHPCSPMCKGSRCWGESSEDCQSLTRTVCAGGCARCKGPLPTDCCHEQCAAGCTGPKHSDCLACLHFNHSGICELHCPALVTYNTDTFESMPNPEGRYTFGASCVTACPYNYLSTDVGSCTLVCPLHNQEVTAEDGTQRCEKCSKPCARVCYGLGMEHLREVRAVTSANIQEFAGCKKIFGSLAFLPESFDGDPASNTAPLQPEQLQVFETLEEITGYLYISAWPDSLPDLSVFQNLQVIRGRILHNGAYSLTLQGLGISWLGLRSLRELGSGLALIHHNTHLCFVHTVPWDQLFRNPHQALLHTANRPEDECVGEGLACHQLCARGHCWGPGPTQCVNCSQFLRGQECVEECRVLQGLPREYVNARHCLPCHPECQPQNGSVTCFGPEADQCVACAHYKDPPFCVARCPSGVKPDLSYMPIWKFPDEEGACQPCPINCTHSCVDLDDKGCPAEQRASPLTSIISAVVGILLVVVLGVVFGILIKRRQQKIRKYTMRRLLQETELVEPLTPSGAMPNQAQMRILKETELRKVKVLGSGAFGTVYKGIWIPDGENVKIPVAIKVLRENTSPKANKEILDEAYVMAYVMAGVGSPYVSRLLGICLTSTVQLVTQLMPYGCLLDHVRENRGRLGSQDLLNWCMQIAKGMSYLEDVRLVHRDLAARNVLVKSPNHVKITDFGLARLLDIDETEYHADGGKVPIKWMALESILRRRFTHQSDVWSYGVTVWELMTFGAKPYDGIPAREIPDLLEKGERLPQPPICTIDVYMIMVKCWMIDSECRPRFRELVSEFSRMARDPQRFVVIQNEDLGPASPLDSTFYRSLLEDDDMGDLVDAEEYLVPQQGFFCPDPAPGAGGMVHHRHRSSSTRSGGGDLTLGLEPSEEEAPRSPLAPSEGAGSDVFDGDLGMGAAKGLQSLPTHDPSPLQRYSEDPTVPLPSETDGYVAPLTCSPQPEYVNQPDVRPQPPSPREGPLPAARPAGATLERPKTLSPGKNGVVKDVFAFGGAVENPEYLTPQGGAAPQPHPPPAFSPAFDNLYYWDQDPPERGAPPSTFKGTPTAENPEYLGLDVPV
# [2] = EGF-stimulated EGFR WT phosphorylation
# [3] = cellular EGFR WT phosphorylation, EGF-stimulated
# [4] = cellular ErbB2 YVMA phosphorylation
# Sequence of EGFR wild type (EGFR WT) (P00533 25-1210): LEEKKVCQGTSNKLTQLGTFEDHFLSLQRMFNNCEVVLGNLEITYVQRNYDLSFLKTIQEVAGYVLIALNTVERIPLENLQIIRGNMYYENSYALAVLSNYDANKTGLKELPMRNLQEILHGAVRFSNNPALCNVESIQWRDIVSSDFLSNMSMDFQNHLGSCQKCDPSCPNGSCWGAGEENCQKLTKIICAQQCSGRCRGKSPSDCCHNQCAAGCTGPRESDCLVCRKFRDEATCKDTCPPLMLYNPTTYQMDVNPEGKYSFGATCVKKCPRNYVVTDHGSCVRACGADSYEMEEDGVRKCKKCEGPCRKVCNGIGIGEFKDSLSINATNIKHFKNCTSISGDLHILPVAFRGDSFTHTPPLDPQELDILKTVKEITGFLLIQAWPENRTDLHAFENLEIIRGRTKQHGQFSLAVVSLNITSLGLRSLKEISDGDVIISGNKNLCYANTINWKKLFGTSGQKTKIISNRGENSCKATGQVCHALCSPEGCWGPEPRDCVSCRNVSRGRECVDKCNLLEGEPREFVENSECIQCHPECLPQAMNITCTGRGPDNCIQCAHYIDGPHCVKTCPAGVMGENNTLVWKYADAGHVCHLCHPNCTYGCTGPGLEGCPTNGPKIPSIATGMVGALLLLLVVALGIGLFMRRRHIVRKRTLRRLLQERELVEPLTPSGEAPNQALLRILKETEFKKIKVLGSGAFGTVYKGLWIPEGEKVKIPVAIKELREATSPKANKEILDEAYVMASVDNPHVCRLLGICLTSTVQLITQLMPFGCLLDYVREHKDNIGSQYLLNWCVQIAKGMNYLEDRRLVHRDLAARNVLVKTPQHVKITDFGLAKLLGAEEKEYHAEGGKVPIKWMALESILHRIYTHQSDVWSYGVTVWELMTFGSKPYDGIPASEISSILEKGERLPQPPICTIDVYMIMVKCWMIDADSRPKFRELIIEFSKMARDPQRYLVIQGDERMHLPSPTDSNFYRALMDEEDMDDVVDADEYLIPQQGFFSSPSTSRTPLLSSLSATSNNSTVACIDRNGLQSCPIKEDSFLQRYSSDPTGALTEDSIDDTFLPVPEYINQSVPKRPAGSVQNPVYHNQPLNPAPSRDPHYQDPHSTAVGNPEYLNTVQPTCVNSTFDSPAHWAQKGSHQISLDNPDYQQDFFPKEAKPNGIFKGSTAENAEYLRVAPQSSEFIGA
# Sequence of EGFR (P00533 25-1210): as above
IC50 (EGFR wild type (EGFR WT); [2]) [µM],IC50 (EGFR; EGFR enzyme) [µM],IC50 (ErbB2 WT; ErbB2 WT enzyme) [µM],IC50 ([1]; ErbB2 YVMA phosphorylation) [µM],IC50 (EGFR wild type (EGFR WT); [3]) [µM],IC50 (EGFR; EGFR enzyme assay) [µM],IC50 (ErbB2 WT; ErbB2 WT enzyme assay) [µM],"IC50 [1, 4] [µM]",SMILES
–,–,–,–,1.44,0.598,0.0449,0.0352,C=CC(=O)N1C[C@H]2CC[C@H](c3ccc4ncnc(Nc5ccc(Oc6ccn7ncnc7c6)c(C)c5F)c4n3)[C@H]2C1 [Example 411]
–,–,–,–,1.16,0.48,0.0673,0.0098,C=CC(=O)N1CCN(c2ccc3ncnc(Nc4ccc(Oc5cnc6c(c5)ncn6C)c(C)c4F)c3n2)CC12CC2 [Example 450]
≥ 5,≥ 10,0.121,0.0445,–,–,–,–,"C=CC(=O)N1CCC[C@@H](c2ccc3ncnc(Nc4cc(C)c(Oc5ccc6c(c5)ncn6C)cc4F)c3n2)CC1 (racemic) [Example 135, rac-(R)-1-(4-(4-((2-fluoro-5-methyl-4-((1-methyl-1H-benzo[d]imidazol-5-yl)oxy)phenyl)amino)pyrido[3,2-d]pyrimidin-6-yl)azepan-1-yl)prop-2-en-1-one]"
0.374,1.44,0.233,0.0197,–,–,–,–,"C=CC(=O)N1CCC(Oc2ccc3ncnc(Nc4ccc(Oc5cnn6ccnc6c5)c(C)c4F)c3n2)CC1 [Example 56, 1-(4-((4-((2-fluoro-4-(imidazo[1,2-b]pyridazin-7-yloxy)-3-methylphenyl)amino)pyrido[3,2-d]pyrimidin-6-yl)oxy)piperidin-1-yl)prop-2-en-1-one]"
–,–,–,–,0.281,0.21,0.037,0.0152,C=CC(=O)N1CCN(c2ccc3ncnc(Nc4ccc(Oc5ccc6scnc6c5)c(C)c4)c3n2)CC1(C)C [Example 432]
–,–,–,–,≥ 5,≥ 10,0.22,0.235,C=CC(=O)N1C[C@H](c2ccc3ncnc(Nc4cc(C)c(Oc5ccn6ncnc6c5)cc4F)c3n2)C[C@H]1C (mixture of isomers) [Example 386]
–,–,–,–,≥ 5,4.51,0.0415,0.114,C=CC(=O)N1CCCN(c2ccc3ncnc(Nc4cc(C)c(Oc5ccn6ncnc6c5)cc4F)c3n2)CC1(C)C [Example 260]
–,–,–,–,0.902,0.255,0.0365,0.0299,C=CC(=O)N1CC(Cc2ccc3ncnc(Nc4ccc(Oc5ccn6ncnc6c5)c(C)c4F)c3n2)C1 [Example 298]
–,–,–,–,≥ 5,≥ 10,0.795,0.172,C=CC(=O)N1[C@H](C)CN(c2ccc3ncnc(Nc4ccc(Oc5ccc6c(c5)ncn6C)c(C)c4F)c3n2)C[C@H]1C [Example 255]
–,–,–,–,0.0468,0.0884,0.0077,0.0034,C=CC(=O)N1CCN(c2ccc3ncnc(Nc4ccc(Oc5ccn6ncnc6c5)c(Cl)c4F)c3n2)C[C@H]1COC [Example 344]
–,–,–,–,≥ 5,7.97,0.127,0.0661,C=CC(=O)N1CCN(c2ccc3ncnc(Nc4ccc(Oc5ccn6ncnc6c5)c(C)c4F)c3n2)C[C@@H]1C1CCC1 (racemic) [Example 305]
0.148,0.0705,0.01,0.0087,–,–,–,–,"C=CC(=O)N1C[C@H]2C[C@@H]1[C@H](c1ccc3ncnc(Nc4ccc(Oc5ccn6ncnc6c5)c(Cl)c4F)c3n1)C2 [Example 231, 1-((1R,4R,6R)-6-(4-((4-([1,2,4]triazolo[1,5-a]pyridin-7-yloxy)-3-chloro-2-fluorophenyl)amino)pyrido[3,2-d]pyrimidin-6-yl)-2-azabicyclo[2.2.1]heptan-2-yl)prop-2-en-1-one]"
0.0495,0.378,0.038,0.005,–,–,–,–,"C=CC(=O)N1C[C@@H]2C[C@H]1CN2c1ccc2ncnc(Nc3ccc(Oc4ccn5ncnc5c4)c(C)c3F)c2n1 [Example 95, 1-((1S,4S)-5-(4-((4-([1,2,4]triazolo[1,5-a]pyridin-7-yloxy)-2-fluoro-3-methylphenyl)amino)pyrido[3,2-d]pyrimidin-6-yl)-2,5-diazabicyclo[2.2.1]heptan-2-yl)prop-2-en-1-one]"
≥ 5,≥ 10,0.1,0.273,–,–,–,–,"C=C(F)C(=O)N1CCN(c2ccc3ncnc(Nc4ccc(Oc5ccn6ncnc6c5)c(C)c4F)c3n2)CC1(C)C [Example 187, 1-(4-(4-((4-([1,2,4]triazolo[1,5-a]pyridin-7-yloxy)-2-fluoro-3-methylphenyl)amino)pyrido[3,2-d]pyrimidin-6-yl)-2,2-dimethylpiperazin-1-yl)-2-fluoroprop-2-en-1-one]"
0.0535,0.137,0.0126,0.0037,–,–,–,–,"C=CC(=O)N1C[C@@H]2C[C@H]1CN2c1ccc2ncnc(Nc3ccc(Oc4ccn5ncnc5c4)c(Cl)c3F)c2n1 [Example 93, 1-((1S,4S)-5-(4-((4-([1,2,4]triazolo[1,5-a]pyridin-7-yloxy)-3-chloro-2-fluorophenyl)amino)pyrido[3,2-d]pyrimidin-6-yl)-2,5-diazabicyclo[2.2.1]heptan-2-yl)prop-2-en-1-one]"
–,–,–,–,≥ 5,≥ 10,0.307,0.0382,C=CC(=O)N1CCN(c2ccc3ncnc(Nc4cc(Cl)c(Oc5cnc6c(c5)ncn6C)cc4F)c3n2)C[C@H]1C1CC1 [Example 430]
0.875,0.96,0.0373,0.033,–,–,–,–,"C=CC(=O)N1C[C@H]2CC[C@@H]1C[C@@H]2c1ccc2ncnc(Nc3ccc(Oc4ccn5ncnc5c4)c(C)c3F)c2n1 (single isomer, unassigned) [Example 234]"
–,–,–,–,0.238,0.465,0.0176,0.0165,C=CC(=O)N1CCN(c2ccc3ncnc(Nc4cc(Cl)c(Oc5ccn6ncnc6c5)cc4F)c3n2)CC1C(F)F (stereo not shown) [Example 365]
–,–,–,–,≥ 5,2.91,0.0254,0.0115,C=CC(=O)N(C)[C@H]1CCN(c2ccc3ncnc(Nc4ccc(Oc5ccn6ncnc6c5)c(C)c4F)c3n2)C1 [Example 352]
≥ 5,6.7,0.323,0.192,–,–,–,–,"C=CC(=O)N1CCN(c2nc3c(Nc4ccc(Oc5ccn6ncnc6c5)c(C)c4F)ncnc3cc2Cl)C[C@@H]1C [Example 149, (S)-1-(4-(4-((4-([1,2,4]triazolo[1,5-a]pyridin-7-yloxy)-2-fluoro-3-methylphenyl)amino)-7-chloropyrido[3,2-d]pyrimidin-6-yl)-2-methylpiperazin-1-yl)prop-2-en-1-one]"
≥ 5,≥ 10,0.486,0.381,–,–,–,–,"Cc1c(Oc2ccn3ncnc3c2)ccc(Nc2ncnc3ccc(N4C[C@@H]5CCN(C(=O)C67CC6C7)[C@@H]5C4)nc23)c1F (stereo partly drawn) [Example 27, ((3aS,6aS)-5-(4-((4-([1,2,4]triazolo[1,5-a]pyridin-7-yloxy)-2-fluoro-3-methylphenyl)amino)pyrido[3,2-d]pyrimidin-6-yl)hexahydropyrrolo[3,4-b]pyrrol-1(2H)-yl)(bicyclo[1.1.0]butan-1-yl)methanone]"
≥ 5,≥ 10,0.342,0.0257,–,–,–,–,"C=CC(=O)N1CCN(c2ccc3ncnc(Nc4ccc(Oc5ccc6c(c5)ncn6C)c(C)c4F)c3n2)C[C@@H]1C1CC1 [Example 162, (S)-1-(2-cyclopropyl-4-(4-((2-fluoro-3-methyl-4-((1-methyl-1H-benzo[d]imidazol-5-yl)oxy)phenyl)amino)pyrido[3,2-d]pyrimidin-6-yl)piperazin-1-yl)prop-2-en-1-one]"
–,–,–,–,0.239,0.168,0.0114,0.0128,C=CC(=O)N1CCN(c2ccc3ncnc(Nc4ccc(Oc5ccn6ncnc6c5)c(C)c4F)c3n2)C[C@@H]1C(F)F (racemic) [Example 297]

SMILES,IC50 (EGFR wild type (EGFR WT); [2]) [µM],IC50 (EGFR; EGFR enzyme) [µM],IC50 (ErbB2 WT; ErbB2 WT enzyme) [µM],IC50 ([1]; ErbB2 YVMA phosphorylation) [µM],IC50 (EGFR wild type (EGFR WT); [3]) [µM],IC50 (EGFR; EGFR enzyme assay) [µM],IC50 (ErbB2 WT; ErbB2 WT enzyme assay) [µM],"IC50 [1, 4] [µM]"
"C=CC(=O)N1C2CCC1CN(c1ccc3ncnc(Nc4ccc(Oc5ccn6ncnc6c5)c(Cl)c4F)c3n1)C2 [Example 238, 1-(3-(4-((4-([1,2,4]triazolo[1,5-a]pyridin-7-yloxy)-3-chloro-2-fluorophenyl)amino)pyrido[3,2-d]pyrimidin-6-yl)-3,8-diazabicyclo[3.2.1]octan-8-yl)prop-2-en-1-one]",0.0903,0.114,0.0117,0.0055,–,–,–,–
C=CC(=O)N1[C@@H]2CCC[C@H]1[C@@H](c1ccc3ncnc(Nc4cc(C)c(Oc5ccn6ncnc6c5)cc4F)c3n1)C2 [Example 414],–,–,–,–,≥ 5,0.866,0.0301,0.0576
"C=CC(=O)N1C2CC1CN(c1ccc3ncnc(Nc4cc(Cl)c(Oc5ccn6ncnc6c5)cc4F)c3n1)C2 [Example 44, 1-(3-(4-((4-([1,2,4]triazolo[1,5-a]pyridin-7-yloxy)-5-chloro-2-fluorophenyl)amino)pyrido[3,2-d]pyrimidin-6-yl)-3,6-diazabicyclo[3.1.1]heptan-6-yl)prop-2-en-1-one]",≥ 5,≥ 10,0.0815,0.0557,–,–,–,–
"C=CC(=O)N1[C@@H]2CC[C@H]1CC(c1ccc3ncnc(Nc4cc(C)c(Oc5ccc6c(c5)ncn6C)cc4F)c3n1)C2 (mixture of isomers) [Example 130, rac-1-((1R,5S)-3-(4-((2-fluoro-5-methyl-4-((1-methyl-1H-benzo[d]imidazol-5-yl)oxy)phenyl)amino)pyrido[3,2-d]pyrimidin-6-yl)-8-azabicyclo[3.2.1]octan-8-yl)prop-2-en-1-one]",≥ 5,7.34,0.135,0.0199,–,–,–,–
C=CC(=O)N1[C@@H]2CC[C@H]1[C@H](c1ccc3ncnc(Nc4cc(C)c(Oc5ccn6ncnc6c5)cc4F)c3n1)C2 [Example 392],–,–,–,–,≥ 5,1.48,0.0098,0.082
